ChEMBL document CHEMBL1201862, “PubChem BioAssay data set” (2004)
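In this assay, cells in 96-well plates receive the compound at five concentrations for 48 hours. Endpoints are linearly interpolated between the surrounding concentrations. Here, GI50 denotes the concentration required for 50% inhibition of growth.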 Active and inactive are the calls of the source. Cut-off read from the data, not from the text of the source: active = GI50 up to about 1.1 µM and inactive = higher.

Tests used:
Test in all cases: inhibition of tumour cell growth, NCI panel, 48 h
K562 = system: K562
HCT-116 = system: HCT-116
SNB-75 = system: SNB-75
IGROV-1 = system: IGROV-1
CAKI-1 = system: CAKI-1
NCI-H23 = system: NCI-H23
KM12 = system: KM12
HCT-15 = system: HCT-15
A549 = system: A549
OVCAR-4 = system: OVCAR-4
HT-29 = system: HT-29
SF-295 = system: SF-295
LOX IMVI = system: LOX IMVI
U-251 = system: U-251
OVCAR-8 = system: OVCAR-8
A498 = system: A498
SK-MEL-28 = system: SK-MEL-28
MDA-MB-231 = system: MDA-MB-231
UACC-62 = system: UACC-62

Measured: GI50

CN(Cc1ccccc1)C(=O)c1ccccc1C(=O)O
inactive: K562 > 100 µM | HCT-116 > 100 µM | SNB-75 > 100 µM | IGROV-1 > 100 µM | CAKI-1 > 100 µM | NCI-H23 > 100 µM | KM12 > 100 µM | A549 > 100 µM | OVCAR-4 > 100 µM | HT-29 > 100 µM | SF-295 > 100 µM | LOX IMVI > 100 µM | U-251 > 100 µM | OVCAR-8 > 100 µM
> 100 µM: HCT-15

Cc1cc(S(=O)(=O)Nc2nc(N)nc(N(C)C)n2)c(SC(C(=O)O)c2ccccc2)cc1Cl (stereo not drawn)
> 10 µM: HCT-15
inactive: K562 > 10 µM | HCT-116 > 10 µM | SNB-75 > 10 µM | IGROV-1 > 10 µM | CAKI-1 > 10 µM | NCI-H23 > 10 µM | KM12 > 10 µM | A549 > 10 µM | A498 > 10 µM | OVCAR-4 > 10 µM | HT-29 > 10 µM | SK-MEL-28 > 10 µM | SF-295 > 10 µM | LOX IMVI > 10 µM | U-251 > 10 µM | OVCAR-8 > 10 µM

CC(=O)n1nc(-c2ccc3ccccc3c2)nc1C
inactive: K562 90.8 µM | HCT-116 67.3 µM | SNB-75 70.3 µM | IGROV-1 > 100 µM | CAKI-1 53.7 µM | NCI-H23 > 10 µM | KM12 23.9 µM | A549 81.1 µM | OVCAR-4 91 µM | HT-29 > 100 µM | SF-295 52.8 µM | MDA-MB-231 > 100 µM | LOX IMVI 57.3 µM | OVCAR-8 > 100 µM | UACC-62 89.9 µM
35.6 µM: HCT-15

CCNC(=O)O/N=C1\CCC2[C@@H]3CC=C4C[C@@H](OC(=O)NCC)CC[C@]4(C)C3CC[C@]12C (stereo partly drawn)
active: K562 0.769 µM | HCT-116 0.57 µM | NCI-H23 1.08 µM | SF-295 0.971 µM | LOX IMVI 0.537 µM | UACC-62 0.951 µM
2.15 µM: HCT-15
inactive: SNB-75 2.69 µM | IGROV-1 4.43 µM | CAKI-1 1.88 µM | KM12 2.9 µM | A549 2.16 µM | A498 22.3 µM | OVCAR-4 1.55 µM | HT-29 2.86 µM | SK-MEL-28 3.19 µM | U-251 2.09 µM | OVCAR-8 4.03 µM

COc1c2c(cc3occ(-c4ccc(CC=C(C)C)cc4)c(=O)c13)OC(C)(C)C=C2
45.9 µM: HCT-15
inactive: K562 10.6 µM | HCT-116 26.4 µM | SNB-75 60.1 µM | IGROV-1 > 100 µM | CAKI-1 > 100 µM | NCI-H23 25.8 µM | KM12 41.4 µM | A549 30.1 µM | OVCAR-4 > 10 µM | HT-29 26.9 µM | SK-MEL-28 > 100 µM | SF-295 35.4 µM | MDA-MB-231 > 100 µM | LOX IMVI 23.6 µM | U-251 33.7 µM | OVCAR-8 48.4 µM | UACC-62 > 100 µM

Oc1c(NCn2nc(CCCCCCCCc3nn(CNc4ccc5ccccc5c4O)c(=S)o3)oc2=S)ccc2ccccc12
35.6 µM: HCT-15
inactive: K562 > 100 µM | HCT-116 11.9 µM | SNB-75 > 100 µM | IGROV-1 50.2 µM | CAKI-1 > 100 µM | NCI-H23 97.5 µM | KM12 28.2 µM | A549 44.4 µM | A498 > 100 µM | OVCAR-4 76.2 µM | HT-29 73.6 µM | SK-MEL-28 49.7 µM | SF-295 33.7 µM | MDA-MB-231 20 µM | U-251 86.5 µM | UACC-62 68.4 µM

COC1=CC(=O)c2c(cc(COP(=O)(OCC3OC(n4cc(F)c(=O)[nH]c4=O)CC3O)N(C)CCCCCl)n2C)C1=O (stereo not drawn)
active: HCT-116 0.138 µM | SNB-75 < 0.0124 µM | IGROV-1 0.479 µM | CAKI-1 0.0102 µM | NCI-H23 0.142 µM | A549 < 0.01 µM | HT-29 0.233 µM | SF-295 < 0.0132 µM | LOX IMVI 0.0148 µM | U-251 0.409 µM | OVCAR-8 0.0593 µM | UACC-62 0.0736 µM
inactive: K562 1.98 µM | KM12 10 µM | OVCAR-4 1.82 µM | MDA-MB-231 3.82 µM
7.55 µM: HCT-15

COc1cc(C2c3cc4c(c(O)c3C(=O)C3CCC(=O)N32)OCO4)cc(OC)c1OC (stereo not drawn)
48.8 µM: HCT-15
inactive: K562 34.9 µM | HCT-116 56.4 µM | SNB-75 30 µM | IGROV-1 61.9 µM | CAKI-1 47.3 µM | NCI-H23 > 100 µM | KM12 51.9 µM | A549 18.2 µM | A498 39.9 µM | OVCAR-4 > 100 µM | HT-29 42.9 µM | SK-MEL-28 49.5 µM | SF-295 36.6 µM | LOX IMVI 52.5 µM | U-251 > 100 µM | OVCAR-8 > 100 µM | UACC-62 30.1 µM

CCC(C)c1c(Cl)nc(Cl)nc1Cl (stereo not drawn)
5.13 µM: HCT-15
active: LOX IMVI 0.44 µM
inactive: K562 2.2 µM | HCT-116 6.07 µM | SNB-75 13.8 µM | IGROV-1 14.4 µM | NCI-H23 2.64 µM | KM12 1.78 µM | A549 > 10 µM | OVCAR-4 16.9 µM | HT-29 6.01 µM | SK-MEL-28 7.18 µM | SF-295 24 µM | U-251 4.16 µM | OVCAR-8 17.9 µM | UACC-62 18.6 µM

N#CCCC1C(C#N)C2CC1C1C3C=CC(C3)C21 (stereo not drawn)
inactive: K562 > 100 µM | HCT-116 > 100 µM | SNB-75 > 100 µM | IGROV-1 > 100 µM | CAKI-1 > 100 µM | NCI-H23 > 100 µM | KM12 > 100 µM | A549 > 100 µM | OVCAR-4 > 100 µM | HT-29 > 100 µM | SK-MEL-28 > 100 µM | SF-295 > 100 µM | MDA-MB-231 > 100 µM | LOX IMVI > 100 µM | OVCAR-8 > 100 µM | UACC-62 > 100 µM
> 100 µM: HCT-15

C#CC1(O)CCC2C3CCc4cc(Oc5nc(F)nc(-c6c7ccccc7c7sc8ccccc8n67)n5)ccc4C3CC[C@@]21C (stereo partly drawn)
> 100 µM: HCT-15
inactive: K562 > 100 µM | HCT-116 > 100 µM | SNB-75 22.1 µM | IGROV-1 > 100 µM | CAKI-1 > 100 µM | NCI-H23 33.3 µM | KM12 > 100 µM | A549 > 100 µM | OVCAR-4 > 100 µM | HT-29 > 100 µM | SK-MEL-28 > 100 µM | SF-295 > 100 µM | U-251 75.7 µM | OVCAR-8 > 100 µM | UACC-62 > 100 µM

C/N=N/N(C)C(=O)NC
> 100 µM: HCT-15
inactive: K562 > 100 µM | HCT-116 > 100 µM | SNB-75 > 100 µM | IGROV-1 > 100 µM | CAKI-1 > 100 µM | NCI-H23 > 100 µM | KM12 > 100 µM | A549 > 100 µM | A498 > 100 µM | OVCAR-4 > 100 µM | HT-29 > 100 µM | SK-MEL-28 > 100 µM | SF-295 > 100 µM | LOX IMVI > 100 µM | U-251 > 100 µM | OVCAR-8 > 100 µM | UACC-62 > 100 µM

NC(=O)COc1c(Br)cc(Br)cc1Br
inactive: K562 > 100 µM | HCT-116 > 100 µM | SNB-75 > 100 µM | CAKI-1 > 100 µM | NCI-H23 > 100 µM | KM12 > 100 µM | A549 > 100 µM | OVCAR-4 27.7 µM | HT-29 > 100 µM | SK-MEL-28 > 100 µM | SF-295 > 100 µM | U-251 > 100 µM | OVCAR-8 > 100 µM | UACC-62 > 100 µM
> 100 µM: HCT-15

CC1(C)C2CC(c3ccncc3)ON2C(C)(C)N1O (stereo not drawn)
> 100 µM: HCT-15
inactive: K562 > 100 µM | HCT-116 > 100 µM | SNB-75 > 100 µM | IGROV-1 > 100 µM | CAKI-1 > 100 µM | NCI-H23 > 100 µM | KM12 > 100 µM | A549 > 100 µM | OVCAR-4 > 100 µM | HT-29 > 100 µM | SK-MEL-28 > 100 µM | SF-295 > 100 µM | MDA-MB-231 > 100 µM | LOX IMVI > 100 µM | U-251 > 100 µM | OVCAR-8 > 100 µM | UACC-62 > 100 µM

S=c1sc2ccccc2n1CN1CCN(Cc2ccccc2)CC1
inactive: K562 > 100 µM | HCT-116 > 100 µM | SNB-75 > 100 µM | IGROV-1 > 100 µM | CAKI-1 > 100 µM | NCI-H23 > 100 µM | KM12 > 100 µM | A549 > 100 µM | A498 > 100 µM | OVCAR-4 > 100 µM | HT-29 > 100 µM | SF-295 > 100 µM | LOX IMVI > 100 µM | U-251 > 100 µM | OVCAR-8 > 100 µM | UACC-62 > 100 µM
> 100 µM: HCT-15

N=C(N)N1CCC(N2CCOCC2)CC1
> 100 µM: HCT-15
inactive: K562 > 100 µM | HCT-116 > 100 µM | SNB-75 > 100 µM | IGROV-1 > 100 µM | NCI-H23 > 100 µM | KM12 > 100 µM | A549 > 100 µM | A498 > 100 µM | OVCAR-4 > 100 µM | HT-29 > 100 µM | SK-MEL-28 > 100 µM | SF-295 > 100 µM | MDA-MB-231 > 100 µM | U-251 > 100 µM | OVCAR-8 > 100 µM | UACC-62 > 100 µM

O/N=N/c1ccc(Sc2ccc(/N=N/O)cn2)nc1
> 100 µM: HCT-15
inactive: K562 > 100 µM | HCT-116 > 100 µM | SNB-75 > 100 µM | IGROV-1 > 100 µM | CAKI-1 > 100 µM | NCI-H23 > 100 µM | KM12 > 100 µM | A549 > 100 µM | A498 > 100 µM | OVCAR-4 > 100 µM | HT-29 > 100 µM | SK-MEL-28 > 100 µM | SF-295 > 100 µM | MDA-MB-231 > 100 µM | U-251 > 100 µM | OVCAR-8 > 100 µM | UACC-62 > 100 µM
